Results reported in patent publication US6608107B2, “Methods and compositions to treat conditions associated with neovascularization” (Wackvom Limited, priority 2000, dated 2003).
Values joined by “and” are separate entries in the source; they are usually repeats but may differ in a detail not shown here. Identical values can stand only once.

Tests used:
[1] = Organ distribution of gossypol enantiomers; settings: in vivo
endothelial cells = assay: Endothelial Cell Assay (inhibition of endothelial cell growth); format: cell-based; settings: for Endothelial cell assay reading, samples 1-5: raw reading per sample
Description: The assays were carried out according to the procedures of Connally, et al. (1986) Anal. Biochem. 152:136-4 with modifications (Liang and Wong (1999) ANGIOGENESIS: FROM THE MOLECULAR TO INTEGRATIVE PHARMACOLOGY edited by Maradoudakis, Kluwer Academic/Plenum. Publishers, New York).

For `Cc1cc2c(C(C)C)c(O)c(O)c(C=O)c2c(O)c1-c1c(C)cc2c(C(C)C)c(O)c(O)c(C=O)c2c1O` [(+) gossypol], the “organs in which the enantiomer concentrates” value [1] was “concentrates in the kidneys”.
With `Cc1cc2c(C(C)C)c(O)c(O)c(C=O)c2c(O)c1-c1c(C)cc2c(C(C)C)c(O)c(O)c(C=O)c2c1O` [(−) gossypol] the “organs in which the enantiomer concentrates” value [1] was “concentrates in the major organs such as the heart, spleen and muscles”.
With `Cc1cc2c(C(C)C)c(O)c(O)c(C=O)c2c(O)c1-c1c(C)cc2c(C(C)C)c(O)c(O)c(C=O)c2c1O` [Gossypol Acetate, gossypol acetate] the Inhibition (endothelial cells; Gossypol Acetate, first column (concentration not given)) was 46.2%, the Inhibition (endothelial cells; Gossypol Acetate, second column (concentration not given)) was 21.3% and the “Endothelial cell assay reading, samples 1-5” value (endothelial cells; Gossypol Acetate) was 0.3289 and 0.3165 and 0.3065 and 0.3035 and 0.3269.
With `Cc1cc2c(C(C)C)c(O)c(O)c(C=O)c2c(O)c1-c1c(C)cc2c(C(C)C)c(O)c(O)c(C=O)c2c1O` [Gossypol] the “Endothelial cell assay reading, samples 1-5” value (endothelial cells; Concentration of Gossypol: 25 mM) was 0.0112 and 0.0078 and 0.0057 and 0.0068 and 0.0076 and the inhibition at 25000 µM (endothelial cells; Endothelial cell, Concentration of Gossypol: 25 mM) was 97.6%.
